The record followed here is US20200207734A1, “HETEROCYCLIC COMPOUND AND USE THEREOF” (Takeda Pharmaceutical Company Limited, priority 2017, published 2020).

Structures are written as SMILES.

This experiment addresses T1, human orexin type 2 receptor (Homo sapiens, UniProt O43614).
T1 construct: human orexin type 2 receptor cDNA was inserted into pcDNA3.1(+) plasmid vector (Invitrogen); expressed in transfected cells
T1 sequence (O43614 1-444): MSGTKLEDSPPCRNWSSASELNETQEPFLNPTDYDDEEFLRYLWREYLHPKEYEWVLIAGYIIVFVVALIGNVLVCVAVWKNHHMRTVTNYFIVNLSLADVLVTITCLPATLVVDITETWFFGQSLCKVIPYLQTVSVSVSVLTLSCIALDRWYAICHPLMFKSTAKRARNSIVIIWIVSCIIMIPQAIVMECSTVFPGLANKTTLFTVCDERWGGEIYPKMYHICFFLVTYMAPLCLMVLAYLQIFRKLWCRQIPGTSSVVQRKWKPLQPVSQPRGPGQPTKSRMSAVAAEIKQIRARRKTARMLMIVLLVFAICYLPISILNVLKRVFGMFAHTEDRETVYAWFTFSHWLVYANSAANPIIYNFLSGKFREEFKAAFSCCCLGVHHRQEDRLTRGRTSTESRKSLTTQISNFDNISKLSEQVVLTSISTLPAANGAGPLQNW
The experiment can be described thus: Measurement of orexin type 2 receptor agonist activity (calcium fluorescence, CHO cells expressing hOX2R). The class given is cell-based. The conditions noted are these: test compound 3 μM; CHO cells expressing human OX2 receptor; DMSO = 0%, orexin A (human) = 100%. The source says:
To obtain a cell clone stably expressing human orexin type 2 receptor, human orexin type 2 receptor cDNA was inserted into pcDNA3.1(+) plasmid vector (Invitrogen), and a plasmid DNA for expression of human orexin type 2 receptor (pcDNA3.1(+)/hOX2R) was cloned. The plasmid DNA was introduced into CHO-dhfr cell by an electroporation method, and human orexin type 2 receptor expressing clone cells were obtained by limiting dilution method by using G418 drug resistance as a selection marker.
CHO cells forcibly expressing human OX2 receptor were seeded in each well of 384 well black transparent bottom plate (BD Falcon) at 7,500 cells/well, and cultured for one day in a 5% CO2 incubator at 37° C. After removal of the medium in the cell plate, assay buffer A containing a calcium indicator (HBSS (Thermo Fisher Scientific), 20 mM HEPES (Thermo Fisher Scientific), 0.1% BSA (Wako Pure Chemical Industries, Ltd. or Sigma-Aldrich), 2.5 μg/mL Fluo-4 AM (DOJINDO Chemical), 0.08% Pluronic F127 (DOJINDO Chemical), 1.25 mM probenecid (DOJINDO Chemical)) was added at 30 μL/well. The plate was stood for 30 min in a 5% CO2 incubator at 37° C., and further stood at room temperature for 30 min. A test compound prepared by diluting with assay buffer B (HBSS, 20 mM HEPES, 0.1% BSA) was added at 10 μL/well, and the fluorescence value was measured by FDSSμCELL (Hamamatsu Photonics K.K.) every one sec for 1 min, and thereafter every two sec for 1 min 40 sec. The activity (%) of the test compound was calculated assuming that variation in the fluorescence value when DMSO was added instead of the test compound was 0%, and variation in the fluorescence value when orexin A (human) (PEPTIDE INSTITUTE, INC.) was added at the final concentration of 10 nM was 100%.
Consider `CCNC(=O)N1CCC[C@H](NS(C)(=O)=O)[C@@H]1Cc1cccc(Cc2ccccc2)c1` (relative stereo) [Example 1, cis-2-(3-benzylbenzyl)-N-ethyl-3-((methylsulfonyl)amino)piperidine-1-carboxamide], for which the “OX2R agonist activity (3 μM, %)” value is listed as 81%.
For the compound `CCNC(=O)N1CCC[C@H](NS(C)(=O)=O)[C@@H]1Cc1cccc(Cc2cccc(C)c2)c1` (relative stereo) [Example 2, cis-N-ethyl-2-(3-(3-methylbenzyl)benzyl)-3-((methylsulfonyl)amino)piperidine-1-carboxamide], the “OX2R agonist activity (3 μM, %)” value is reported as 90%.
The value for `CCNC(=O)N1CCC[C@H](NS(C)(=O)=O)[C@@H]1Cc1cccc(-c2ccccc2)c1` (relative stereo) [Example 3, cis-2-(biphenyl-3-ylmethyl)-N-ethyl-3-((methylsulfonyl)amino)piperidine-1-carboxamide] was 101%; that for `CCNC(=O)N1CCC[C@H](NS(C)(=O)=O)[C@@H]1Cc1cccc(OC2CCCCC2)c1` (relative stereo) [Example 7, cis-2-(3-(cyclohexyloxy)benzyl)-N-ethyl-3-((methylsulfonyl)amino)piperidine-1-carboxamide] was 62%; that for `CCNC(=O)N1CCC[C@H](NS(C)(=O)=O)[C@@H]1Cc1cccc(Oc2ccccc2)c1` (relative stereo) [Example 10, cis-N-ethyl-3-((methylsulfonyl)amino)-2-(3-phenoxybenzyl)piperidine-1-carboxamide] was 91%.
The value for `COC(=O)N1CCC[C@H](NS(C)(=O)=O)[C@@H]1Cc1cccc(-c2ccccc2)c1` (relative stereo) [Example 11, methyl cis-2-(biphenyl-3-ylmethyl)-3-((methylsulfonyl)amino)piperidine-1-carboxylate] was 80%; that for `COC(=O)N1CCC[C@H](NS(C)(=O)=O)[C@@H]1Cc1cccc(-c2cccc(F)c2)c1` (relative stereo) [Example 14, methyl cis-2-((3′-fluorobiphenyl-3-yl)methyl)-3-((methylsulfonyl)amino)piperidine-1-carboxylate] was 82%.
Under `CCNC(=O)N1CCC[C@H](NS(C)(=O)=O)[C@@H]1Cc1cccc(O[Si](C(C)C)(C(C)C)C(C)C)c1` (relative stereo) [Example 17, cis-N-ethyl-3-((methylsulfonyl)amino)-2-(3-((triisopropylsilyl)oxy)benzyl)piperidine-1-carboxamide] stands 29%; under `CC(=O)N1CCC[C@H](NS(C)(=O)=O)[C@@H]1Cc1cccc(-c2ccccc2)c1` (relative stereo) [Example 22, N-(cis-1-acetyl-2-(biphenyl-3-ylmethyl)piperidin-3-yl)methanesulfonamide], 60%; under `COC(=O)N1CCC[C@H](NS(C)(=O)=O)[C@@H]1Cc1cccc(N2CCCC2)c1` (relative stereo) [Example 27, methyl cis-3-((methylsulfonyl)amino)-2-(3-(pyrrolidin-1-yl)benzyl)piperidine-1-carboxylate], 66%.
In the case of `CCOC(=O)N1CCC[C@H](NS(C)(=O)=O)[C@@H]1Cc1cccc(-c2ccccc2)c1` (relative stereo) [Example 29, ethyl cis-2-(biphenyl-3-ylmethyl)-3-((methylsulfonyl)amino)piperidine-1-carboxylate], the “OX2R agonist activity (3 μM, %)” value is reported as 98%.
Under `CCNC(=O)N1CCC[C@H](NS(C)(=O)=O)[C@@H]1Cc1cccc(-c2ccc(C(F)(F)F)cc2)c1` (relative stereo) [Example 35, cis-N-ethyl-3-((methylsulfonyl)amino)-2-((4′-(trifluoromethyl)biphenyl-3-yl)methyl)piperidine-1-carboxamide] stands 41%; under `CCOC(=O)N1CCC[C@H](NS(C)(=O)=O)[C@@H]1Cc1cccc(-c2ccccc2)n1` (relative stereo) [Example 38, ethyl cis-3-((methylsulfonyl)amino)-2-((6-phenylpyridin-2-yl)methyl)piperidine-1-carboxylate], 75%; under `COC(=O)N1CCC[C@H](NS(C)(=O)=O)[C@@H]1Cc1ccc(F)c(-c2ccccc2)c1` (relative stereo) [Example 41, methyl cis-2-((6-fluorobiphenyl-3-yl)methyl)-3-((methylsulfonyl)amino)piperidine-1-carboxylate], 67%.
The value for `CC(C)OC(=O)N1CCC[C@H](NS(C)(=O)=O)[C@@H]1Cc1cccc(-c2ccccc2)c1` (relative stereo) [Example 50, isopropyl cis-2-(biphenyl-3-ylmethyl)-3-((methylsulfonyl)amino)piperidine-1-carboxylate] was 97%; that for `COC(=O)N1CCC[C@H](NS(C)(=O)=O)[C@@H]1Cc1cccc(-c2ccc3c(cnn3C)c2)c1` (relative stereo) [Example 53, methyl cis-2-(3-(1-methyl-1H-indazol-5-yl)benzyl)-3-((methylsulfonyl)amino)piperidine-1-carboxylate] was 72%.
As to `C=C(C)c1cccc(C[C@H]2[C@@H](NS(C)(=O)=O)CCCN2C(=O)OC)c1` (relative stereo) [Example 55, methyl cis-3-((methylsulfonyl)amino)-2-(3-(prop-1-en-2-yl)benzyl)piperidlne-1-carboxylate], the “OX2R agonist activity (3 μM, %)” value is listed as 84%.
The value for `COC(=O)N1CCC[C@H](NS(C)(=O)=O)[C@@H]1Cc1cccc(C2CCC2)c1` (relative stereo) [Example 60, methyl cis-2-(3-cyclobutylbenzyl)-3-((methylsulfonyl)amino)piperidine-1-carboxylate] was 26%; that for `COC(=O)N1CC[C@H](NS(C)(=O)=O)[C@@H]1Cc1cccc(-c2ccccc2)c1` (relative stereo) [Example 61, methyl cis-2-(biphenyl-3-ylmethyl)-3-((methylsulfonyl)amino)pyrrolidine-1-carboxylate] was 74%; that for `CCNC(=O)N1CCC[C@H](NS(C)(=O)=O)[C@@H]1Cc1ccccc1Oc1ccccc1` (relative stereo) [Example 62, cis-N-ethyl-3-((methylsulfonyl)amino)-2-(2-phenoxybenzyl)piperidine-1-carboxamide] was 93%.
The value for `CCNC(=O)N1CCC[C@H](NS(C)(=O)=O)[C@@H]1Cc1ccc(Oc2ccccc2)cc1` (relative stereo) [Example 63, cis-N-ethyl-3-((methylsulfonyl)amino)-2-(4-phenoxybenzyl)piperidine-1-carboxamide] was 24%; that for `CC(C)OC(=O)N1CCC[C@H](NS(C)(=O)=O)[C@@H]1Cc1cccc(-c2ccccc2)n1` (relative stereo) [Example 64, isopropyl cis-3-((methylsulfonyl)amino)-2-((6-phenylpyridin-2-yl)methyl)piperidine-1-carboxylate] was 96%; that for `CC(C)OC(=O)N1CC[C@H](NS(C)(=O)=O)[C@@H]1Cc1cccc(-c2ccccc2)c1` (relative stereo) [Example 74, isopropyl cis-2-(biphenyl-3-ylmethyl)-3-((methylsulfonyl)amino)pyrrolidine-1-carboxylate] was 104%.
Consider `CC(C)OC(=O)N1CCC[C@H](NS(C)(=O)=O)[C@@H]1Cc1cccc2c1oc1ccccc12` (relative stereo) [Example 78, isopropyl cis-2-(dibenzo[b,d]furan-4-ylmethyl)-3-((methylsulfonyl)amino)piperidine-1-carboxylate], for which the “OX2R agonist activity (3 μM, %)” value is 35%.
As to `CC(C)OC(=O)N1CCC[C@H](NS(C)(=O)=O)[C@@H]1Cc1csc(-c2ccccc2)n1` (relative stereo) [Example 89, isopropyl cis-3-((methylsulfonyl)amino)-2-((2-phenyl-1,3-thiazol-4-yl)methyl)piperidine-1-carboxylate], the “OX2R agonist activity (3 μM, %)” value worked out at 96%.
